From patent US20260315475A1 (priority 2023, published 2026)
Where a name gives a salt, the structure may show the parent alone.

Assays:
[1] = Phase I single-dose open-label pharmacokinetic study in participants with normal hepatic function and varying degrees of hepatic impairment; format: in vivo, human; details: for MRAUC (metabolite/parent ratio based on AUC): geometric mean (CV %); for tlast: plasma, single oral 200 mg belumosudil, fed, median
Text: The primary objective was to assess the pharmacokinetic (PK) of belumosudil following a single oral dose of belumosudil in participants with mild, moderate, or severe hepatic impairment compared to healthy participants with normal hepatic function.
The secondary objectives were: to evaluate the safety and tolerability of a single oral dose of belumosudil in participants with mild, moderate, or severe hepatic impairment, and in healthy participants with normal hepatic function; to assess the PK of the belumosudil metabolites following a single oral dose of belumosudil in participants with mild, moderate, or severe hepatic impairment compared to healthy participants with normal hepatic function.
Approximately 38 participants were to be enrolled into the following groups based on their hepatic function, as determined according to the Child-Pugh system. • Group 1 (n=approximately 16): matched healthy participants with normal hepatic function • Group 2 (n=8): participants with mild hepatic impairment (Child-Pugh Class A [score of 5 or 6]) • Group 3 (n=8): participants with moderate hepatic impairment (Child-Pugh Class B [score of 7 to 9]) • Group 4 (n=6): participants with severe hepatic impairment (Child-Pugh Class C [score of 10 to 14]).
Healthy participants with normal hepatic function (Group 1) were demographically matched by age (±10 years), sex, and body mass index (BMI; +20%) to participants with hepatic impairment (Groups 2, 3, and 4). Participants with normal hepatic function could be matched to multiple participants across the 3 hepatic impairment groups (mild, moderate, and severe), but could not be matched to more than 1 participant within the same impairment group.
Pharmacokinetic blood samples were obtained from predose until 48 hours postdose (Day 3).
Summary tables, mean (+standard deviation [SD]) figures, overlaying individual figures, and individual figures by hepatic function and time postdose were provided for plasma PK concentrations. Summary tables by hepatic function were provided for all PK parameters, with the exception of terminal phase regression-related diagnostic parameters (λz, λz upper, λ z lower, λz number of points, R2-adj, and % AUCextrap), which were listed only.
All other PK parameters were regarded as secondary and were not participant to inferential statistical analysis.

[2] = cited from earlier work
[3] = cited from earlier work; remark: listed apart in the source
[4] = healthy volunteers, per label; cited from earlier work
CYP3A4 = details: in vitro, high concentrations; cited from earlier work

O=C(O)COc1cccc(-c2nc(Nc3ccc4[nH]ncc4c3)c3ccccc3n2)c1 [KD025m2]
MRAUC (metabolite/parent ratio based on AUC) ([1]; mild hepatic impairment): 0.135 (73.8%) | MRAUC (metabolite/parent ratio based on AUC) ([1]; mild hepatic impairment, listed as KD025 m2): 0.135 (73.8) [8] | MRAUC (metabolite/parent ratio based on AUC) ([1]; moderate hepatic impairment): 0.318 (70.5%) | MRAUC (metabolite/parent ratio based on AUC) ([1]; moderate hepatic impairment, listed as KD025 m2): 0.318 (70.5) [7] | MRAUC (metabolite/parent ratio based on AUC) ([1]; normal hepatic function): 0.103 (68.8%) | MRAUC (metabolite/parent ratio based on AUC) ([1]; normal hepatic function, listed as KD025 m2): 0.103 (68.8) [14] | tlast ([1]; mild hepatic impairment): 23.9 h | tlast ([1]; moderate hepatic impairment): 48.0 h | tlast ([1]; normal hepatic function): 14.0 h | tlast ([1]; severe hepatic impairment): 48.0 h | MRAUC (metabolite/parent ratio based on AUC) ([1]; severe hepatic impairment): 0.680 (63.5%) | MRAUC (metabolite/parent ratio based on AUC) ([1]; severe hepatic impairment, listed as KD025 m2): 0.680 (63.5) [4]

CC(C)NC(=O)COc1cccc(-c2nc(Nc3ccc4[nH]ncc4c3)c3ccccc3n2)c1 [belumosudil mesylate, 2-{3-[4-(1H-indazol-5-ylamino)-2-quinazolinyl]phenoxy}-N-(propan-2-yl) acetamide methanesulfonate (1:1)]
solubility in DMF ([2]; DMF): slightly soluble | solubility in DMSO ([2]; DMSO): soluble | solubility in methanol ([2]; methanol): slightly soluble | solubility in water ([2]; water): practically insoluble

C=CC(=O)N1CCC[C@@H](n2nc(-c3ccc(Oc4ccccc4)cc3)c3c(N)ncnc32)C1 [ibrutinib]
overall response rate (ORR) ([3]; cGVHD patients with >25% body surface area erythematous rash or NIH mouth score >4): 67% | discontinuation rate because of TEAEs ([3]; cGVHD patients): 43%

CO[C@H]1/C=C/O[C@@]2(C)Oc3c(C)c(O)c4c(O)c(c5c(nc6cc(C)ccn65)c4c3C2=O)NC(=O)/C(C)=C\C=C\[C@H](C)[C@H](O)[C@@H](C)[C@@H](O)[C@@H](C)[C@H](OC(C)=O)[C@@H]1C [rifaximin]
drug-drug interaction (DDI) effects [4]: not shown to have drug-drug interaction (DDI) effects | CYP3A4 induction (CYP3A4): CYP3A4 inducer at high concentrations
